Measurements reported in BindingDB's records for doi:10.1111/cbdd.12663 (West China Hospital, 2016).

Legend:
Test in all cases: DPP-IV Inhibition Screening Assay
[1] = target: Dipeptidyl peptidase 8 (Homo sapiens, UniProt Q6V1X1)
Method: (§1) DPP-IV inhibition was measured by DPP-IV inhibitor screening assay kit (Cayman Chemical Company, Item No. 700210) following the manufacturer's instructions. Briefly, solutions of test compounds at varying concentrations were prepared in dimethyl sulfoxide (DMSO) and then diluted into assay buffer. Human recombinant DPP-IV was added to the dilutions and preincubated for 30 min at 37 °C before the reaction was initiated by the addition of fluorogenic substrate solution AMC (Gly-Pro-Aminomethylcoumarin). Human recombinant DPP-8 or DPP-9 was added to the dilutions and preincubated for 10 min at 22 °C before the reaction was initiated by the addition of fluorogenic DPP substrate. The kinetics of the reaction wasmonitored (excitation at 380 nm, emission at 460 nm).

[2] = target: Dipeptidyl peptidase 9 (Homo sapiens, UniProt Q86TI2)
Method: as §1

[3] = target: Dipeptidyl peptidase 4 [K6R,T557I] (Homo sapiens, UniProt P27487, K6R/T557I)
Method: as §1

Chain of Dipeptidyl peptidase 8 (Q6V1X1 whole entry): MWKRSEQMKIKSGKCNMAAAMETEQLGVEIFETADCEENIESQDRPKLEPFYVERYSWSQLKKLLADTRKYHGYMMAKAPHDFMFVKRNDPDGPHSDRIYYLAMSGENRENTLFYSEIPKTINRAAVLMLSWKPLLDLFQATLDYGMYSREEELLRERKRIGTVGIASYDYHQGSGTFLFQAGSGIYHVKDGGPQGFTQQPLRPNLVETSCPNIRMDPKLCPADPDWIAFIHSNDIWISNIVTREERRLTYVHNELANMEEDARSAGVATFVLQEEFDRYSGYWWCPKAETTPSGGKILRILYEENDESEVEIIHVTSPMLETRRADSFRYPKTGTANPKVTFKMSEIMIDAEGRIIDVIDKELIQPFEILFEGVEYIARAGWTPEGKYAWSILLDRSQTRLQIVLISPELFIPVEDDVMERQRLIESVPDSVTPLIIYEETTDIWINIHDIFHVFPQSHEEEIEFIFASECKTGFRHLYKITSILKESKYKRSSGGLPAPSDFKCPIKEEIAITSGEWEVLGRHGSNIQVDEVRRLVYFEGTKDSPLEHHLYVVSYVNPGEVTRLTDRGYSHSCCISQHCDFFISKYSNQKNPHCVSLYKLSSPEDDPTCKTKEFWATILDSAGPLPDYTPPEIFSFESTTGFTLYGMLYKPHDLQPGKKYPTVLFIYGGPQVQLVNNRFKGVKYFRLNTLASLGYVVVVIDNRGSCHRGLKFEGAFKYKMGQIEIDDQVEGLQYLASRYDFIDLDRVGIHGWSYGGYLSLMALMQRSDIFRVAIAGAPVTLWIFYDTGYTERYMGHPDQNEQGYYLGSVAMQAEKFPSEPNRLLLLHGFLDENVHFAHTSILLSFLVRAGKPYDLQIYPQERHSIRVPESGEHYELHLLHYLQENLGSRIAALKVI
Chain of Dipeptidyl peptidase 4 [K6R,T557I] (P27487 whole entry K6R/T557I/D663E): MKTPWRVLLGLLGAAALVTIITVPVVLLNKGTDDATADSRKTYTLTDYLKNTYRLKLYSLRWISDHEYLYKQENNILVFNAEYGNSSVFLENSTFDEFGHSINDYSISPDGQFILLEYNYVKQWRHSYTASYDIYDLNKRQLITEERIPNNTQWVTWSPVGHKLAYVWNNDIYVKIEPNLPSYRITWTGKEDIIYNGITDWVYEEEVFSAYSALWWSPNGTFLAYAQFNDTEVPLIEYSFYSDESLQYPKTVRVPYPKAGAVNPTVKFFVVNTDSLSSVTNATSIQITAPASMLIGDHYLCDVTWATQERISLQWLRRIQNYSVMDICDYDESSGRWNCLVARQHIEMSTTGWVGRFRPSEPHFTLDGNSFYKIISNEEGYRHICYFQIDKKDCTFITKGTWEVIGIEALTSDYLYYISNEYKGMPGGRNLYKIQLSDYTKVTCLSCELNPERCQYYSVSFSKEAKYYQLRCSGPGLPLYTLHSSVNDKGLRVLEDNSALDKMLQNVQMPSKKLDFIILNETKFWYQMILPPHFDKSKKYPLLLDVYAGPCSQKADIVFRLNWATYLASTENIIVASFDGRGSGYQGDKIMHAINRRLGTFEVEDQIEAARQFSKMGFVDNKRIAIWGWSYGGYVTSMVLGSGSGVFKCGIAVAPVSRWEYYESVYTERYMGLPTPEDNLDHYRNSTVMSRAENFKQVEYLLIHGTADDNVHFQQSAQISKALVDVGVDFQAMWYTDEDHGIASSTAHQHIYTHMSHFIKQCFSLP
Chain of Dipeptidyl peptidase 9 (Q86TI2 whole entry): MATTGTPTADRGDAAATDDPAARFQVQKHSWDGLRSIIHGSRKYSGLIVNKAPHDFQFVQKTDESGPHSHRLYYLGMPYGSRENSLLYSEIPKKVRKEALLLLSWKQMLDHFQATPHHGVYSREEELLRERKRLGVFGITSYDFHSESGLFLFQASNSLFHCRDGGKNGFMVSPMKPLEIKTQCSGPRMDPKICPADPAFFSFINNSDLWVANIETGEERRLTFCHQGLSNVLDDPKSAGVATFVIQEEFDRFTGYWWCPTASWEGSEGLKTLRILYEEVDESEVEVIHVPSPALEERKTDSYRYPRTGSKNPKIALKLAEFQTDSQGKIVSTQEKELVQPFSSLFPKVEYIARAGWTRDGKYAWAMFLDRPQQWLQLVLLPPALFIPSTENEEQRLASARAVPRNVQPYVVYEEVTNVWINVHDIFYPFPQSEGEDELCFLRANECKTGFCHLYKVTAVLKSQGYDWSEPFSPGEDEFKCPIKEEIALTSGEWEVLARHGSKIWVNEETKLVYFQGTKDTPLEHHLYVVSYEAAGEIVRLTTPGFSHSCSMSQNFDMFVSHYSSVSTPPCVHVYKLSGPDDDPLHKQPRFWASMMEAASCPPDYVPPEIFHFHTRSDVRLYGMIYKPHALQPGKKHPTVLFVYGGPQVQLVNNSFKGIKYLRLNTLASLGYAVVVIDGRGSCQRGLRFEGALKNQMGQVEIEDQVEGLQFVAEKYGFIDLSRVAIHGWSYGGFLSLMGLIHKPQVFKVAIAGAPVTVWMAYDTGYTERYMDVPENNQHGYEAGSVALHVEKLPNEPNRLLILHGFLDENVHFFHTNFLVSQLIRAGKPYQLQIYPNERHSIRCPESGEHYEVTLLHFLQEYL

SMILES | IC50 [1] [µM] | IC50 [2] [µM] | IC50 [3] [µM]
CC(C)=CCn1c(N2CCC[C@@H](N)C2)nc2c1c(=O)n(Cc1ccccc1C#N)c(=O)n2C [(R)-40] | > 100 | > 100 | 0.0235
CC(C)=CCn1c(N2CCC[C@@H](N)C2)nc2c1c(=O)n(Cc1nc3ccccc3s1)c(=O)n2C [(R)-43] | > 100 | > 100 | 0.0362
CC(C)=CCn1c(N2CCC[C@H](N)C2)nc2c1c(=O)n(Cc1ccccc1C#N)c(=O)n2C [(S)-40] | > 100 | > 100 | 0.108
CC(C)=CCn1c(N2CCC[C@H](N)C2)nc2c1c(=O)n(Cc1nc3ccccc3s1)c(=O)n2C [(S)-43] | > 100 | > 100 | 0.0369
